# Experimental data taken from US5994406A, “Geminal cationic surfactants of the type Nα Nω bis (Nα-acyl-arginin) α,ω diamino alkyl dichlorohydrates as antimicrobial agents” (Consejo Superior Investigaciones Cientificas, priority 1995, dated 1999).
# Where two headings read alike, the source gives them in different places.
# Columns and labels:
# [1] = system: Bacilus subtilis ATCC 6633; assay: antimicrobial activity, MIC, organism 4; format: cell-based
# Procedure: (§1) The main properties of the surface activity in aqueous solution at 25° C. which define the practical interest of a surfactant; surface stress to the critical micellar concentration (γ) and critical micellar concentration (CMC) have been determined according to conventional methods. Likewise, the antimicrobial activity has been evaluated based on the inhibiting minimum concentration values (MIC) expressed in μg/mL following the most common methodologies. Table 1 indicates the values of […], CMC and MIC for two dimers of the same homologeous series; C4 (KA)2 (X=8,n=4) and C4 (LA)2 (X=10, n=4). For the purpose of comparisons in this same table the same values are indicated for the monocatenary compounds KAM and LAM respectively.
# 4. Bacilus subtilis ATCC 6633
# [2] = system: Bordeltella bronchiseptica ATCC; assay: antimicrobial activity, MIC, organism 2; format: cell-based
# Procedure: as §1
# 2. Bordeltella bronchiseptica ATCC
# [3] = system: Alcaligenes faecalis ATTCC 8750; assay: antimicrobial activity, minimum inhibitory concentration (MIC), organism 1; format: cell-based
# Procedure: as §1
# 1. Alcaligenes faecalis ATTCC 8750
# [4] = system: Streptococcus faecalis ATCC 10541; assay: antimicrobial activity, MIC, organism 3; format: cell-based
# Procedure: as §1
# 3. Streptococcus faecalis ATCC 10541
# [5] = system: Staphylococcus epidermidis ATCC 1551; assay: antimicrobial activity, MIC, organism 6; format: cell-based
# Procedure: as §1
# 6. Staphylococcus epidermidis ATCC 1551
# [6] = system: Micrococcus luteus ATCC 9341; assay: antimicrobial activity, MIC, organism 7; format: cell-based
# Procedure: as §1
# 7. Micrococcus luteus ATCC 9341
# [7] = critical micellar concentration (CMC), aqueous solution 25° C; format: physicochemical
# Procedure: as §1
# [8] = system: Staphylococcus aereus ATCC 25178; assay: antimicrobial activity, MIC, organism 5; format: cell-based
# Procedure: as §1
# 5. Staphylococcus aereus ATCC 25178
# [9] = surface activity: surface tension at the critical micellar concentration, aqueous solution 25° C; format: physicochemical; design: unit not given here
# Procedure: as §1
MIC ([1]; read-out: MIC),MIC ([2]; read-out: MIC),"MIC ([3]; ATTCC8750, read-out: MIC)","MIC ([4]; Enterococcus faecalis, ATCC10541, read-out: MIC)","MIC ([5]; ATCC1551, read-out: MIC)","MIC ([6]; ATCC9341, read-out: MIC)",CMC [7],"MIC ([8]; ATCC25178, read-out: MIC)",surface stress (γ) at the critical micellar concentration [9],MIC [1],MIC [2],MIC [3],MIC [4],MIC [5],MIC [6],MIC [8],SMILES
8 mg/L,32 mg/L,64 mg/L,16 mg/L,8 mg/L,8 mg/L,7.8e-06 mM,8 mg/L,25,–,–,–,–,–,–,–,"CCCCCCCCCC(=O)N[C@@H](CCCNC(=N)N)C(=O)NCCCCNC(=O)[C@H](CCCNC(=N)N)NC(=O)CCCCCCCCC [C4 (KA)2, Nα, Nω, Bis (Nα -Decanoilarginin) α,ω-Diaminobuthylamide]"
–,–,–,–,–,–,0.0037 mM,–,30.0,> 128 mg/L,> 128 mg/L,64 mg/L,32 mg/L,64 mg/L,> 128 mg/L,64 mg/L,CCCCCCCCCCCC(=O)N[C@@H](CCCN=C(N)N)C(=O)OC [LAM]
